Assay results from US7041704B2, “Methods of treating gastrointestinal tract disorders using sodium channel modulators” (Dynogen Pharmaceuticals, Inc., priority 2003, dated 2006).

Key:
[1] = system: sodium currents in colon DRG neurons; assay: Whole cell patch-clamp, activity-dependent (use-dependent) modulation of sodium currents, slow vs fast stimulation; type: cell-based, rat; settings: 100 µM lamotrigine; slow (0.2 Hz) vs fast (17 Hz) step depolarizations from −50 to 0 mV; three neurons; P<0.05 vs slow stimulation
Protocol: (§1) Labeling of GI tract afferent neurons: Adult female Sprague-Dawley rats (150–300 g) were deeply anesthetized with pentobarbital anesthesia and placed on isoflurane maintenance anesthesia. A ventral midline incision was made through the abdominal skin and musculature, exposing the GI tract. Five injections of the fluorescent dyes Di-I (5 µl each of 25 mg/ml Di-I in DMSO) or Fast Blue (4% w/v) were made into the wall of the colon to label primary afferent fibers innervating the GI tract. The areas were rinsed with sterile saline to eliminate nonspecific spread of dye, and the incision was closed. […] Labeled neurons were identified in vitro using fluorescence optics. […]
(§2) In most experiments, neurons were incubated in culture medium containing the FITC-labeled lectin BSI-B4 (IB4, […]) at 37° C. for 5 min before recording. The coverslip was washed with extracellular recording solution for 1 min before being placed in a recording chamber mounted on the stage of an inverted microscope equipped with fluorescence optics. […]
(§3) Sodium currents were recorded from DRG neurons using standard electrophysiologic protocols. […] Currents were recorded using a patch-clamp amplifier and digitized at 3–10 kHz for acquisition. Neuronal input resistance and membrane capacitance were determined from the amplitude and kinetics of the current response to a voltage pulse from a holding potential of −50 mV. […]

[2] = biological target: TTX-R sodium currents in GI tract afferent neurons (Rattus norvegicus, UniProt Q62968); assay: Whole cell patch-clamp, tonic block of TTX-R sodium currents, cumulative concentration-response; type: cell-based; settings: bath application; four GI tract afferent neurons
TTX-R sodium currents in GI tract afferent neurons, sequence (Q62968 whole entry, looked up): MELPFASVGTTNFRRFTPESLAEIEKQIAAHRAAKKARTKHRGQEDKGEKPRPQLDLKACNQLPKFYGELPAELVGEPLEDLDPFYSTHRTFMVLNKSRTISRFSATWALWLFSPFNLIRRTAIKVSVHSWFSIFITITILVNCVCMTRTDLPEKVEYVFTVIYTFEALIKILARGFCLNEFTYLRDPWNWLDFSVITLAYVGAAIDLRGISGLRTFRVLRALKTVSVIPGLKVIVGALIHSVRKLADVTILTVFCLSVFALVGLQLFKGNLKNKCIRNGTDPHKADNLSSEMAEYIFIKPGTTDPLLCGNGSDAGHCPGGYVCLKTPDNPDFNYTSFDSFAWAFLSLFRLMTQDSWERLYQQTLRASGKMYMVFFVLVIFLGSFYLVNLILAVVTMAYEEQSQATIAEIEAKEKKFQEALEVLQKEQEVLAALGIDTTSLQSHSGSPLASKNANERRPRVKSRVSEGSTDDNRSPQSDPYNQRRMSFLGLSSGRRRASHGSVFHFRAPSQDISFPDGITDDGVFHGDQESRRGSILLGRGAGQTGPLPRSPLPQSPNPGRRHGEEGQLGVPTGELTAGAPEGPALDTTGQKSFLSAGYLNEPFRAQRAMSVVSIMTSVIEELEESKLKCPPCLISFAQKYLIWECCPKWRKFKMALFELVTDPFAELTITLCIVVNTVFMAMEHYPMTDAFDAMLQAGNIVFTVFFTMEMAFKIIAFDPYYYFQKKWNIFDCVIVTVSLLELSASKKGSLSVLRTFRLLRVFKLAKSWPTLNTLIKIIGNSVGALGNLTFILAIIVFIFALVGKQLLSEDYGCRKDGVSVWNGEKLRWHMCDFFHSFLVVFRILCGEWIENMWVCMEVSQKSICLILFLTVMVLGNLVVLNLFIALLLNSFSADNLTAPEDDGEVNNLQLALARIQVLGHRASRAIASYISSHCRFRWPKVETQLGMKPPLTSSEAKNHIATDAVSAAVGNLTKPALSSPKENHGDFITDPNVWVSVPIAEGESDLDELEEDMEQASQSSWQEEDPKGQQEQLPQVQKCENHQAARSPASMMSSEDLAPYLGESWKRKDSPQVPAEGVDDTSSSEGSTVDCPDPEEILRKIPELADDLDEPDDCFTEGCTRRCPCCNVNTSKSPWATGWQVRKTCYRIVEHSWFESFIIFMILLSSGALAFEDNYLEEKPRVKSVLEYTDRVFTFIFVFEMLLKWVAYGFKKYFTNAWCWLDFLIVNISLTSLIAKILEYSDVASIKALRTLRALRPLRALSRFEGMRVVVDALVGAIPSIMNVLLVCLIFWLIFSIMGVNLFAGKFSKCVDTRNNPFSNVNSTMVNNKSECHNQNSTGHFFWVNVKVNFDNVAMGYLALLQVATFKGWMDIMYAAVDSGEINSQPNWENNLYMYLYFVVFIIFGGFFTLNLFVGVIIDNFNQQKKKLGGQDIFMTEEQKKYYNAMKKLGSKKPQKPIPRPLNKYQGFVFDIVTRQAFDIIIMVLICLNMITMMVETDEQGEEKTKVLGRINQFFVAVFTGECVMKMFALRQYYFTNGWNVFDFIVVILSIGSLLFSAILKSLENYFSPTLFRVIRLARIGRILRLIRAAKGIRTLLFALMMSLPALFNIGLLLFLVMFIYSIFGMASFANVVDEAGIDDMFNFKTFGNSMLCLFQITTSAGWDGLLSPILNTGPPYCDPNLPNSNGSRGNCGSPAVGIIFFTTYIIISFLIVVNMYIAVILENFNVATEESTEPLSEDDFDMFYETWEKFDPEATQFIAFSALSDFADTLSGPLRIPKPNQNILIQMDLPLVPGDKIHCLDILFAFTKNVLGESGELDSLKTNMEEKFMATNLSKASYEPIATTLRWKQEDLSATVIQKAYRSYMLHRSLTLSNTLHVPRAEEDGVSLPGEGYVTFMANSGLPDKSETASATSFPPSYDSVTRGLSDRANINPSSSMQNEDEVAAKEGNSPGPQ
Protocol: as §1, §2, §3

Row | SMILES | mean peak sodium current amplitude (mean % control amplitude) [1] | block of TTX-R sodium currents (in words) [2]
1 | Nc1nnc(-c2cccc(Cl)c2Cl)c(N)n1 [lamotrigine, 6-(2,3-Dichlorophenyl)-1,2,4-triazine-3,5-diamine] | decreased to a greater extent under fast stimulation conditions | –
2 | Nc1c(Br)cc(Br)cc1CNC1CCC(O)CC1 (centres unmarked) [Ambroxol] | – | concentration-dependent reversible block
